Laboratory results from patent US5753704A, “Therapeutic compositions comprising unsaturated dioic acids or derivatives thereof” (Unichema Chemie B.V., priority 1992, dated 1998).
“Also recorded” adds a separate entry of the source. One block for each molecule: values may come before it.

Assays:
thioredoxin reductase = details: cited from earlier work
P. ACNES ATCC 25746 = test: MIC's for long chain dioic acids against P. acnes (Table 4); assay type: cell-based, Propionibacterium acnes; details: for MIC: P. acnes ATCC 25746
Protocol: (§1) The Minimum Inhibitory Concentration (MIC) of each of various unsaturated dicarboxylic acid mixtures was determined in the presence and absence of 10% Intralipid (Kabi Pharmacia, Inc.) using the agar dilution technique for susceptibility of 32 strains of Propionibacterium acnes and of 32 strains of various genera of aerobic bacteria. The method was as set out below.
(§2) A 5% stock solution for each agent was prepared by adding 10 grams of the dioic acid material to 200 milliliters of double strength Tryptic Soy Broth (TSB), (Baltimore Biological Laboratories). The pH of each solution was adjusted to 7.0±0.2 with sodium hydroxide.
(§3) For each organic acid two sets of 200 ml capacity bottle/flasks were numbered 1 to 9. To each bottle was added 50 cc of double strength TSB. From the 5% stock solution, 50 cc of TSB were transferred to bottles #1 and #2. Serial transfers of 50 cc are made from bottle #2 through to bottle #8. Bottle #9 of each set contained only 50 cc of double strength TSB, without any dicarboxylic acid. To all 18 bottles were added 2 grams of granulated agar (BBL).
(§4) All bottles were autoclaved at 121° C., 15 psi for 15 minutes and then held at 50° C. in a water bath.
(§5) To one set of bottles #1-9 were added 50 cc of hot, sterile water. The bottles were swirled to mix the contents and 25 cc was poured into each of four petri dishes and allowed to solidify. To the second set of bottles were added 50 cc of Intralipid (pre-warmed to 50° C). The contents were then mixed and poured as above. Standard inocula of the test organisms were prepared by matching the bacterial suspension in 0.85% PSS (physiological saline solution) to a 0.5 McFarland Standard and diluting ten-fold to yield 10^7 CFU (colony forming units). The inocula were loaded into 32 wells of a steers replicator. The multi-prong inoculator delivers 0.001 to 0.002 cc resulting in a final inoculum of 10^4 CFU per spot.
Plates were inoculated from the lowest to highest concentration (to reduce the effects of "carry-over" of the inoculum), and allowed to dry. The plates were then inverted and incubated at 35° C. for 24 hours. […]
(§6) The agent-free control plates (#9) were examined at the end of the incubation for viability and signs of contamination. End-point MIC values were determined by observing the plate of lowest concentration of agent that inhibited visible micro-organism growth.
A similar experiment was performed, using the same method, to compare the degree of inhibitory activity (for P. acnes) of azelaic acid, the C18:1 dioic acid (obtained from a substrate comprising oleic acid), a mixture of C18.1 fatty (mono-carboxylic) acid, the corresponding C18:1 and C18:2 dioic acids (obtained from a substrate comprising Linoleic acid), and the C16:1 dioic acid (obtained from a substrate comprising palmitoleic acid). The MICs for azelaic acid and the C18.1 dioic acid were essentially as before, confirming the previous results. The corresponding fatty acid had very little activity.
In experiment 4, the degree of inhibition of the azelaic acid control, and therefore of the test samples also, was slightly less than that observed in previous experiments.

Candida albicans = test: MIC, agar dilution technique (Table 3); assay type: cell-based; details: Candida albicans ATCC 18804
Staphylococcus aureus = test: MIC, agar dilution technique (Table 3); assay type: cell-based
Protocol: as §1, §2, §3, §4, §5
(§7) Plates were inoculated from the lowest to highest concentration (to reduce the effects of "carry-over" of the inoculum), and allowed to dry. The plates were then inverted and incubated at 35° C. for 24 hours. Plates inoculated with Propionibacterium acnes strains were incubated under anaerobic conditions for seven days at 35° C.
as §6

Micrococcus sedentarius = test: MIC, agar dilution technique (Table 3); assay type: cell-based; details: Micrococcus sedentarius ATCC 27574
Protocol: as §1, §2, §3, §4, §5, §7, §6

Propionibacterium acnes = test: MIC, agar dilution technique (Table 3); assay type: cell-based
Protocol: as §1, §2, §3, §4, §5, §7, §6

[1] = tested on: Staphylococcus epidermidis; test: MIC, agar dilution technique (Table 3); assay type: cell-based
Protocol: as §1, §2, §3, §4, §5, §7, §6

[2] = tested on: Brevibacterium epidermidis; test: MIC, agar dilution technique (Table 3); assay type: cell-based
Protocol: as §1, §2, §3, §4, §5, §7, §6

Pseudomonas aeruginosa = test: MIC, agar dilution technique (Table 3); assay type: cell-based; details: Pseudomonas aeruginosa ATCC 27853
Protocol: as §1, §2, §3, §4, §5, §7, §6

Escherichia coli = test: MIC, agar dilution technique (Table 3); assay type: cell-based; details: Escherichia coli ATCC 25922
Protocol: as §1, §2, §3, §4, §5, §7, §6

Micrococcus luteus = test: MIC, agar dilution technique (Table 3); assay type: cell-based
Protocol: as §1, §2, §3, §4, §5, §7, §6

[3] = tested on: Corynebacterium minutissium; test: MIC, agar dilution technique (Table 3); assay type: cell-based
Protocol: as §1, §2, §3, §4, §5, §7, §6

[4] = tested on: 32 strains of Propionibacterium acnes and 32 strains of various genera of aerobic bacteria; test: Antimicrobial activity, summary over the range of micro-organisms; assay type: cell-based
Protocol: as §1, §2
as §3, with “(BBL). […]” for “(BBL).”
The agent-free control plates (#9) were examined at the end of the incubation for viability and signs of contamination. End-point MIC values were determined by observing the plate of lowest concentration of agent that inhibited visible micro-organism growth. […]

[5] = Expt. 4, increased incubation period of 18 days
[6] = Staphylococcus aureus ATCC 25923
[7] = Staphylococcus aureus ATCC 29213
[8] = Staphylococcus aureus ATCC 35556
[9] = Propionibacterium acnes ATCC 6919
[10] = Propionibacterium acnes ATCC 29399
[11] = Staphylococcus epidermidis ATCC 14490
[12] = Staphylococcus epidermidis ATCC 31432
[13] = Staphylococcus epidermidis ATCC 35894
[14] = Brevibacterium epidermidis ATCC 35514
[15] = Brevibacterium epidermidis NCDO 2285
[16] = Corynebacterium minutissium ATCC 23347
[17] = Corynebacterium minutissium ATCC 23348
[18] = Corynebacterium minutissium ATCC 23349

SMILES: O=C(O)CCCCCCCC(=O)O [Azelaic acid, azelaic acid, reference compound]
- inhibition of thioredoxin reductase (thioredoxin reductase): inhibits thioredoxin reductase
- MIC (P. ACNES ATCC 25746; Expt. 1, incubation 7 days): 5%
- MIC (P. ACNES ATCC 25746; Expt. 2, incubation 7 days): 5%
- MIC (P. ACNES ATCC 25746; Expt. 3, incubation 7 days): 5%
- MIC (P. ACNES ATCC 25746; [5]): > 5%
- MIC (Candida albicans): > 2.5%
- MIC (Staphylococcus aureus; [6]): 2.5%
- MIC (Staphylococcus aureus; [7]): 2.5%
- MIC (Staphylococcus aureus; [8]): 2.5%
- MIC (Micrococcus sedentarius): 2.5%
- MIC (Propionibacterium acnes; [9]): 1.25%
- MIC (Propionibacterium acnes; [10]): 1.25%
- MIC [1, 11]: > 2.5%
- MIC [1, 12]: > 2.5%
- MIC [1, 13]: > 2.5%
- MIC [2, 14]: > 2.5%
- MIC [2, 15]: > 2.5%
- MIC (Pseudomonas aeruginosa): > 2.5%
- MIC (Escherichia coli): 2.5%
- MIC (Micrococcus luteus; Micrococcus luteus ATCC 9341): > 2.5%
- MIC (Micrococcus luteus; Micrococcus luteus ATCC 15957): > 2.5%
- MIC (Micrococcus luteus; Micrococcus luteus ATCC 27141): 2.5%
- MIC [3, 16]: > 2.5%
- MIC [3, 17]: > 2.5%
- MIC [3, 18]: > 2.5%

- MIC (P. ACNES ATCC 25746; [5]): 0.16%
SMILES: O=C(O)CCCCCC=CCCCCCCCC(=O)O [C16:1 dioic acid ex Palmitoleic acid]

SMILES: CCCCCCCC/C=C\CCCCCCCC(=O)O [C18:1 Fatty acid, oleic acid, reference compound]
- inhibitory activity compared with azelaic acid (P. ACNES ATCC 25746; P. acnes): less active than azelaic acid
- MIC (P. ACNES ATCC 25746; Expt. 3, incubation 7 days): > 5%

- MIC (P. ACNES ATCC 25746; Expt. 1, incubation 7 days): 0.04%
- MIC (P. ACNES ATCC 25746; Expt. 2, incubation 7 days): 0.04%
- MIC (P. ACNES ATCC 25746; Expt. 3, incubation 7 days): 0.04%
- MIC (P. ACNES ATCC 25746; [5]): 0.08%
- MIC (Candida albicans): > 2.5%
- MIC (Candida albicans; + "Intralipid"): > 2.5%
- MIC (Staphylococcus aureus; [6]): 0.07%
- MIC (Staphylococcus aureus; Staphylococcus aureus ATCC 25923, + "Intralipid"): 0.15%
- MIC (Staphylococcus aureus; [7]): 0.15%
- MIC (Staphylococcus aureus; Staphylococcus aureus ATCC 29213, + "Intralipid"): 0.31%
- MIC (Staphylococcus aureus; [8]): 0.07%
- MIC (Staphylococcus aureus; Staphylococcus aureus ATCC 35556, + "Intralipid"): 0.31%
- MIC (Micrococcus sedentarius): 0.15%
- MIC (Micrococcus sedentarius; + "Intralipid"): 0.07%
- MIC (Propionibacterium acnes; [9]): 0.04%
- MIC (Propionibacterium acnes; Propionibacterium acnes ATCC 6919, + "Intralipid"): 0.02%
- MIC (Propionibacterium acnes; [10]): 0.04%
- MIC (Propionibacterium acnes; Propionibacterium acnes ATCC 29399, + "Intralipid"): 0.02%
- MIC [1, 11]: 0.31%
- MIC ([1]; Staphylococcus epidermidis ATCC 14490, + "Intralipid"): 0.31%
- MIC [1, 12]: 0.31%
- MIC ([1]; Staphylococcus epidermidis ATCC 31432, + "Intralipid"): 0.31%
- MIC [1, 13]: 0.31%
- MIC ([1]; Staphylococcus epidermidis ATCC 35894, + "Intralipid"): 0.31%
- MIC [2, 14]: 0.15%
- MIC ([2]; Brevibacterium epidermidis ATCC 35514, + "Intralipid"): 0.15%
- MIC [2, 15]: 0.15%
- MIC ([2]; Brevibacterium epidermidis NCDO 2285, + "Intralipid"): 0.15%
- MIC (Pseudomonas aeruginosa): > 2.5%
- MIC (Pseudomonas aeruginosa; + "Intralipid"): > 2.5%
- MIC (Escherichia coli): > 2.5%
- MIC (Escherichia coli; + "Intralipid"): > 2.5%
- MIC (Micrococcus luteus; Micrococcus luteus ATCC 9341): 0.15%
- MIC (Micrococcus luteus; Micrococcus luteus ATCC 9341, + "Intralipid"): 0.07%
- MIC (Micrococcus luteus; Micrococcus luteus ATCC 15957): 0.15%
- MIC (Micrococcus luteus; Micrococcus luteus ATCC 15957, + "Intralipid"): 0.07%
- MIC (Micrococcus luteus; Micrococcus luteus ATCC 27141): 0.15%
- MIC (Micrococcus luteus; Micrococcus luteus ATCC 27141, + "Intralipid"): 0.07%
- MIC [3, 16]: 0.15%
- MIC ([3]; Corynebacterium minutissium ATCC 23347, + "Intralipid"): 0.15%
- MIC [3, 17]: 0.15%
- MIC ([3]; Corynebacterium minutissium ATCC 23348, + "Intralipid"): 0.15%
- MIC [3, 18]: 0.15%
- MIC ([3]; Corynebacterium minutissium ATCC 23349, + "Intralipid"): 0.15%
SMILES: O=C(O)CCCCCCC/C=C\CCCCCCCC(=O)O [C18:1 dioic acid ex Oleic acid]
- activity relative to azelaic acid (P. ACNES ATCC 25746; P. acnes, fold of the activity of azelaic acid): ~100 ×
- effect of the presence or absence of "Intralipid" on MIC ([4]; 10% Intralipid, listed as C18:1 mono-unsaturated compound): increased the MIC for taph. aureus; also recorded: decreased the MIC for P. acnes and M. luteus
- anti-microbial activity compared with azelaic acid ([4]; Table 3 micro-organisms): many times greater than that for azelaic acid
